From patent publication US7713994B2 (Wyeth LLC, priority 2005, dated 2010) come the findings set out here.

Like-named read-outs stand apart in the source and are kept apart here.

One assay has as its target T1, cyclin E/CDK2 enzyme (Homo sapiens, UniProt P24941).
T1 construct: made in house; host or cells: Sf9 insect cells, recombinant baculovirus
The assay is described as follows: CDK2 ELISA kinase assay (phospho-Rb ser 795 detection). Format: biochemical. In a few lines: (§1)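 ELISA format: plate-bound GST-Rb, 200 μM ATP, Sf9 cyclin/CDK enzyme, 1 h at 30° C; then anti-pRb Ser795 primary overnight at 4° C, HRP secondary, TMB. IC50 after no-substrate background subtraction.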
For orientation: ELISA stands for enzyme-linked immunosorbent assay.

For another assay, the target named is T2, cyclin B/CDK1 enzyme (Homo sapiens, UniProt P06493).
T2 construct: purchased New England BioLabs; host or cells: Sf9 insect cells, recombinant baculovirus
T2 sequence (P06493 whole entry): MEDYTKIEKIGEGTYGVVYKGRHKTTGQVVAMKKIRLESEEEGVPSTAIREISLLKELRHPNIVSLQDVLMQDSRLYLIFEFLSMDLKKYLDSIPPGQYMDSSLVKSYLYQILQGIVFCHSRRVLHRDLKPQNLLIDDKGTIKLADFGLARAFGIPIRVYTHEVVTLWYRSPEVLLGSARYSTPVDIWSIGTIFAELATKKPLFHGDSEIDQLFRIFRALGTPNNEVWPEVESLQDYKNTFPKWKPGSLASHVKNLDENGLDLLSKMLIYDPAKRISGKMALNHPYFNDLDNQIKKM
T2 sequence (P14635 whole entry partner): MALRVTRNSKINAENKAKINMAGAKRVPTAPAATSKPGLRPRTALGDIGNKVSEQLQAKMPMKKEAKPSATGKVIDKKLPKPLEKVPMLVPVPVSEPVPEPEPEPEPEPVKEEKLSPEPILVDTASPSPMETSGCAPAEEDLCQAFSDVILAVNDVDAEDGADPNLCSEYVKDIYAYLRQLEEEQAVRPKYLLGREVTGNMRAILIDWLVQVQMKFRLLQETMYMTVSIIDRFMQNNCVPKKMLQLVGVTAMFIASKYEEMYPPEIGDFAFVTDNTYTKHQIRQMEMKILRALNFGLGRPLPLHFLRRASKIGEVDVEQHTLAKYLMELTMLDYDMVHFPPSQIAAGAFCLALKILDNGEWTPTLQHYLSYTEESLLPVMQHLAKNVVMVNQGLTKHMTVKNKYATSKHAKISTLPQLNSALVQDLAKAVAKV
The assay is described as follows: CDK1 ELISA kinase assay (phospho-Rb ser 795 detection). The class given is biochemical. In a few lines:
as §1

The next assay has as its system MCF-7. The assay is described as follows: Cytotoxicity assay (SRB), MCF-7. The note with it: MCF-7 cells, SRB, read-out: In Vitro Cellular Activity IC50 MCF-7. Format: cell-based. In a few lines:
(§2)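 Cells seeded overnight at 37 °C, 7% CO2 (BT474 12000, HCT-116 4000, LoVo and MCF-7 6000 cells/well) in RPMI 1640 with 5% FBS, then exposed to compound dilutions for 3 days (BT474 6 days). Survival versus untreated controls by TCA fixation and SRB staining, absorbance 540 nm.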

For a further assay, the target named is T3, cyclin D1/cdk 4 enzyme (Homo sapiens, UniProt P11802).
T3 construct: made in house; host or cells: Sf9 insect cells, recombinant baculovirus
T3 sequence (P11802 whole entry, species assumed): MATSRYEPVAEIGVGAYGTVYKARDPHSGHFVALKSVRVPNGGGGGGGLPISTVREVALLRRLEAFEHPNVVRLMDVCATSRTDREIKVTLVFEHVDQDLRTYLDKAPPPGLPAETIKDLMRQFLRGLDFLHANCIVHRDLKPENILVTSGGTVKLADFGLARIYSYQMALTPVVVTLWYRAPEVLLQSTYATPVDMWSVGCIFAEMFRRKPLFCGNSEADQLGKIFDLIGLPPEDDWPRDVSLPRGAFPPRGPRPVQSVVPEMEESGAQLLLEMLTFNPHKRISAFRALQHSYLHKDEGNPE
T3 sequence (P24385 whole entry partner, species assumed): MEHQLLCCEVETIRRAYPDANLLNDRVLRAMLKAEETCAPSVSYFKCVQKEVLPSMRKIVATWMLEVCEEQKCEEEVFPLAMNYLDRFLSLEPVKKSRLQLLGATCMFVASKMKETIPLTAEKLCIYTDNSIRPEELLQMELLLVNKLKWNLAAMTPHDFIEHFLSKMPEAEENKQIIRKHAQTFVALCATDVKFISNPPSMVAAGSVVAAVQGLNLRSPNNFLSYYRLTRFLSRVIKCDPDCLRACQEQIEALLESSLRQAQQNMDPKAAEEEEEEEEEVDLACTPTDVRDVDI
The assay is described as follows: CDK4 ELISA kinase assay (phospho-Rb ser 795 detection). Format: biochemical. The method in brief:
as §1

Another assay concerns BT474. The assay is described as follows: Cytotoxicity assay (SRB), BT474. The class given is cell-based. In a few lines: as §2
In the next assay the test system is LoVo. In words: Cytotoxicity assay (SRB), LoVo. Format: cell-based. The following applies: LoVo cells, SRB, read-out: In Vitro Cellular Activity IC50 LOVO. The method in brief:
as §2

A further assay concerns HCT-116. The assay is described as follows: Cytotoxicity assay (SRB), HCT-116. Format: cell-based. The note with it: HCT116 cells, SRB, read-out: In Vitro Cellular Activity IC50 HCT116. The method in brief: as §2
[1] abbreviates: In Vitro Enzyme Assays, read-out: CDK2 IC50.
[2] abbreviates: In Vitro Enzyme Assays, read-out: CDK1 IC50.
Setting [3] is: Homo sapiens, MCF7, 72 h, 3 days.
Setting [4] is: Homo sapiens, BT-474, 144 h, BT474 cells, 6 days, SRB; read-out: In Vitro Cellular Activity IC50 BT474.
[5] abbreviates: Homo sapiens, LoVo, 72 h, 3 days.
[6] abbreviates: Homo sapiens, HCT-116, 72 h, 3 days.
[7] abbreviates: In Vitro Enzyme Assay, cyclin E/CDK2, read-out: CDK2 IC50.
Where [8] appears, read: In Vitro Enzyme Assay, cyclin B/CDK1, read-out: CDK1 IC50.
The mark [9] stands for this setting: In Vitro Enzyme Assay, cyclin D1/cdk 4, read-out: CDK4 IC50.

What is called IC50 is the concentration that gives 50% inhibition. Take `COc1ccc(CN/C=C2\C(=O)NC(=O)c3ccccc32)cc1O` [Example 98, (4Z)-4-{[(3-Hydroxy-4-methoxybenzyl)amino]methylene}isoquinoline-1,3(2H,4H)-dione]: the IC50 on cyclin E/CDK2 enzyme (setting [1]) is 7.1 µM; on cyclin B/CDK1 enzyme (setting [2]), above 50 µM; in the assay with MCF-7 (Homo sapiens, MCF7, 72 h, three days), 24.1 µM; on cyclin D1/cdk 4 enzyme (CDK4 IC50, In Vitro Enzyme Assays, 200 μM ATP) it was 0.21 µM; in the assay on BT474 (Homo sapiens, BT-474, 144 h, BT474 cells, SRB, 6 days; read-out: In Vitro Cellular Activity IC50 BT474) it was 16.8 µM; in the assay with LoVo (Homo sapiens, LoVo, 72 h, three days) it was 19.3 µM. In addition, the IC50 in the assay with HCT-116 (Homo sapiens, HCT-116, 72 h, three days) was 17.9 µM.

Take `CN(C)C(=O)C1CCN(c2ccc(N/C=C3\C(=O)NC(=O)c4ccc(I)cc43)cc2)CC1` [Example 429, 1-(4-{[(Z)-(6-Iodo-1,3-dioxo-2,3-dihydroisoquinolin-4(1H)-ylidene)methyl]amino}phenyl)-N,N-dimethylpiperidine-4-carboxamide]: the IC50 at cyclin E/CDK2 enzyme (setting [1]) was above 50 µM; on cyclin B/CDK1 enzyme (setting [2]), above 50 µM; with MCF-7 (setting [3]), above 50 µM; on cyclin D1/cdk 4 enzyme (In Vitro Enzyme Assays, 200 μM ATP, read-out: CDK4 IC50), 3 µM; in the assay with BT474 (setting [4]), 11.7 µM; with LoVo (setting [5]), 21.1 µM. Besides, in the assay on HCT-116 (setting [6]), the IC50 worked out at 21 µM.

In the case of `COc1ccc(CNC=C2C(=O)NC(=O)c3ccc(C=Cn4ccnc4)cc32)cc1O` [Example 734, 4-[(3-Hydroxy-4-methoxy-benzylamino)-methylene]-6-(2-imidazol-1-yl-vinyl)-4H-isoquinoline-1,3-dione], the IC50 on cyclin E/CDK2 enzyme (setting [7]) was 5 µM; on cyclin B/CDK1 enzyme (setting [8]), 20.2 µM; in the assay on MCF-7 (setting [3]) it was 6.7 µM; on cyclin D1/cdk 4 enzyme (setting [9]), below 0.005 µM; in the assay on BT474 (setting [4]), 9.9 µM; in the assay with LoVo (setting [5]) it was 2.5 µM. The IC50 with HCT-116 (setting [6]) worked out at 11.9 µM.

`O=C1NC(=O)c2ccc(C=CC3CCCCC3)cc2C1=CNCc1ccc(O)c(O)c1` [Example 664, 6-(2-Cyclohexyl-vinyl)-4-[(3,4-dihydroxy-benzylamino)-methylene]-4H-isoquinoline-1,3-dione]: the IC50 at cyclin E/CDK2 enzyme (setting [7]) is 31.7 µM; at cyclin B/CDK1 enzyme (setting [8]) it was above 50 µM; in the assay on MCF-7 (setting [3]) it was 4.8 µM; on cyclin D1/cdk 4 enzyme (setting [9]), 0.22 µM; with BT474 (setting [4]) it was 9.3 µM; in the assay on LoVo (setting [5]) it was 6 µM. In addition, the IC50 in the assay on HCT-116 (setting [6]) is 6.7 µM.

Turning to `CN1CCN(c2ccc(N/C=C3\C(=O)NC(=O)c4ccc(-c5ccoc5)cc43)c(F)n2)CC1` [Example 497, (4Z)-4-({[2-Fluoro-6-(4-methylpiperazin-1-yl)pyridin-3-yl]amino}methylene)-6-(3-furyl)isoquinoline-1,3(2H,4H)-dione], the IC50 on cyclin E/CDK2 enzyme (setting [7]) was above 50 µM; at cyclin B/CDK1 enzyme (setting [8]) it was above 50 µM; in the assay with MCF-7 (3 days), 1.4 µM; at cyclin D1/cdk 4 enzyme (setting [9]), 0.37 µM; with BT474 (BT474 cells, 6 days, SRB; read-out: In Vitro Cellular Activity IC50 BT474), 2.7 µM; in the assay on LoVo (3 days), 3.2 µM. Further, the IC50 in the assay on HCT-116 (3 days) stood at 2.6 µM.

Take `CN1CCN(c2ccc(NC=C3C(=O)NC(=O)c4ccc(-c5cc[nH]c5)cc43)cc2)CC1` [Example 673, 4-{[4-(4-Methyl-piperazin-1-yl)-phenylamino]-methylene}-6-(1H-pyrrol-3-yl)-4H-isoquinoline-1,3-dione]: the IC50 was above 50 µM at cyclin E/CDK2 enzyme (setting [7]); above 50 µM on cyclin B/CDK1 enzyme (setting [8]); 5.8 µM in the assay on MCF-7 (setting [3]); 1 µM on cyclin D1/cdk 4 enzyme (setting [9]); 8.5 µM in the assay on BT474 (setting [4]); 5 µM in the assay with LoVo (setting [5]). Besides, the concentration for half-maximal inhibition (IC50) with HCT-116 (setting [6]) is 3 µM.

In the case of `O=C1NC(=O)c2ccc(-c3ccco3)cc2/C1=C/NCc1cc(O)ccc1I` [Example 503, 6-Furan-2-yl-4-[(5-hydroxy-2-iodo-benzylamino)-methylene]-4H-isoquinoline-1,3-dione], the IC50 was 34.7 µM at cyclin E/CDK2 enzyme (setting [7]); above 50 µM at cyclin B/CDK1 enzyme (setting [8]); 1 µM in the assay with MCF-7 (setting [3]); 0.02 µM at cyclin D1/cdk 4 enzyme (setting [9]); 1.6 µM with BT474 (setting [4]); 5.1 µM in the assay with LoVo (setting [5]). Also, the IC50 in the assay on HCT-116 (setting [6]) is 5.2 µM.
